The experiment addresses T1, ACVR1 (ALK2) R206H (Homo sapiens, UniProt Q04771, R206H).
T1 construct: purchased Thermo Fisher Scientific (Life Technologies) SelectScreen
The experiment is described as follows: SelectScreen LanthaScreen. It is filed as binding. The following applies: read-out: % displacement. A digest of the protocol: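 NU5455 was profiled across the SelectScreen Broad panel of kinase activity and binding assays. Z'LYTE reactions such as CSF1R ran at apparent Km ATP, while the Adapta CAMK1 assay used ATP listed as 10. Values are given as percent.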
For orientation: Time-resolved FRET reads energy transfer from a long-lived donor to a nearby acceptor.

T1 sequence (Q04771 21-509 R206H): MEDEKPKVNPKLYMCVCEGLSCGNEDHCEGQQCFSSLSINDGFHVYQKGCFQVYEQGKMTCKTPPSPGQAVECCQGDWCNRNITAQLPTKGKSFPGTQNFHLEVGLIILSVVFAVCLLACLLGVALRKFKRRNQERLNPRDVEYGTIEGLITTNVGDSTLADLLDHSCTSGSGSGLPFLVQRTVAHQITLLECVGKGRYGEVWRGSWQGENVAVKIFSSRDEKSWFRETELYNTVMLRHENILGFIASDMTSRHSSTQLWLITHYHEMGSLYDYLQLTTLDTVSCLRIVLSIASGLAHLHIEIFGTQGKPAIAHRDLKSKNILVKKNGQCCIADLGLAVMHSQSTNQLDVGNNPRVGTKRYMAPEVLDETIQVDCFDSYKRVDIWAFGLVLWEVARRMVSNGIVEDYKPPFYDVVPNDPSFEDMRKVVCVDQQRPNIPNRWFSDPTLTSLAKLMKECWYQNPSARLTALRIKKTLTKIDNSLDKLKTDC

For `CN(C(=O)CN1CCOCC1)c1ccc2sc3c(-c4cccc5c(=O)cc(N6CC7CCC(C6)O7)oc45)cccc3c2c1` [NU5455], the inhibition at 1 µM amounted to 12.6%.

The values are drawn from paper PMC6934184, “Selective DNA-PKcs inhibition extends the therapeutic index of localized radiotherapy and chemotherapy” (The Journal of Clinical Investigation, 2019).
